This assay can be described thus: Fluorescence Based Assay: The details of the KEAP1 KELCH ThermoFluor® Assay Construct are as follows: Kelch domain of human KEAP 1 (321-624 aa) was used in the assay. The protein was expressed in E. coli with 6His tag that was cleaved prior to receipt for use.ThermoFluor® experiments were carried out using instruments owned by Janssen Research and Discovery, L.L.C. through its acquisition of 3-Dimensional Pharmaceuticals, Inc. 1,8-ANS (Invitrogen) was used as a fluorescent dye. Protein (KEAP Kelch) and compound solutions were dispensed into black 384-well polypropylene PCR microplates (Abgene) and overlayed with silicone oil (1 μL, Fluka, type DC 200) to prevent evaporation.Reference wells contained KEAP Kelch without compounds, and the assay conditions were as follows: 1.1 μM (0.037mg/mL) KEAP Kelch, 80 μM 1,8-ANS, 25 mM PIPES, pH 7.0, 100 mM NaCl, 0.002% Tween-20.

SMILES strings stand for the structures.

As for `Cc1cnc2c(c1)S(=O)(=O)N(Cc1cc([C@@H](c3ccn4c(C(F)(F)F)nnc4c3C)C(C)(C)C(=O)O)ncc1C)CC1(CCOCC1)O2`, the Kd was less than 1 nM.
Then `Cc1cnc2c(c1)S(=O)(=O)N(Cc1nc([C@H](CC(=O)O)c3ccn4c(C(F)(F)F)nnc4c3C)ccc1C)C[C@@H]1CCCCN21`, with less than 1 nM.
`Cc1cnc([C@@H](c2ccn3c(C(F)F)nnc3c2C)C(C)(C)C(=O)O)cc1CN1CC2(CCOCC2)Oc2nc(OCCN3CCCC3)c(C)cc2S1(=O)=O` registered a Kd of less than 1 nM.
Next, `Cc1ccc([C@H](CC(=O)O)c2ccn3c(C(F)(F)F)nnc3c2C)cc1CN1C[C@H]2CCCN2c2ncc(C#N)cc2S1(=O)=O`: less than 1 nM.
Then `Cc1ccc(C(CC(=O)O)c2ccn3c(C(F)F)nnc3c2C)cc1CN1C[C@@H]2CCCCN2c2ncccc2S1(=O)=O` (some centres undefined), with less than 1 nM.
`Cc1ccc([C@@H](c2ccn3c(C(F)(F)F)nnc3c2C)C(C)(C)C(=O)O)cc1CN1CC2(CC2)Oc2nc(OCCN3CC(F)C3)c(C)cc2S1(=O)=O`: the Kd was less than 1 nM.
Then `Cc1ccc([C@@H](c2ccn3c(C(F)(F)F)nnc3c2C)C(C)(C)C(=O)O)cc1CN1CC2(CCOCC2)Oc2nc(CCC(=O)NC3CCC3)ccc2S1(=O)=O`, with less than 1 nM; and `CC[C@@H]1CN(Cc2cc(C(CC(=O)O)c3cc(OC(F)F)c4c(c3)nnn4C)ccc2C)S(=O)(=O)c2cccnc2O1` (some centres undefined), with less than 1 nM.
Then `Cc1ccc(C(CC(=O)O)c2ccn3c(C(F)(F)F)nnc3c2C)nc1CN1C[C@@H]2CCCCN2c2ncccc2S1(=O)=O` (some centres undefined), with less than 1 nM.
Then `Cc1ccc([C@H](CC(=O)O)c2ccc3c(nnn3CC3CC3)c2C(F)F)cc1CN1C[C@H]2CCCCN2c2ncccc2S1(=O)=O`, with less than 1 nM; and `Cc1cnc([C@@H](c2ccn3c(C(F)(F)F)nnc3c2C)C(C)(C)C(=O)O)cc1CN1CC2(CCOCC2)Oc2ncccc2S1(=O)=O`, with less than 1 nM.
Regarding `Cc1cnc2c(c1)S(=O)(=O)N(Cc1cc([C@@H](c3ccn4c(C(F)(F)F)nnc4c3C)C(C)(C)C(=O)O)ncc1C)CC1(CC1)O2`, the Kd is less than 1 nM.
Next, `CCn1nnc2c(C)c([C@H](c3ccc(C)c(CN4CC5(CCOCC5)Oc5ncccc5S4(=O)=O)n3)C(C)(C)C(=O)O)ccc21`: less than 1 nM; `Cc1ccc([C@H](c2ccn3c(C(F)(F)F)nnc3c2C)C(C)(C)C(=O)O)cc1CN1CC2(CCOCC2)Oc2nc(OCCN3CCNCC3)ccc2S1(=O)=O`: less than 1 nM.
Then `Cc1ccc(C(c2ccn3c(C(F)(F)F)nnc3c2C)C(C)(C)C(=O)O)cc1CN1CC2(CCOCC2)Oc2nc(N[C@H](C)CCO)ccc2S1(=O)=O` (some centres undefined), with less than 1 nM; and `Cc1ccc([C@H](CC(=O)O)c2ccn3c(C(F)F)nnc3c2C)cc1CN1CC2(COC2)Oc2ncccc2S1(=O)=O`, with less than 1 nM; and `Cc1cnc(C(c2ccn3c(C(F)(F)F)nnc3c2C)C(C)(C)C(=O)O)cc1CN1CC2(CCOCC2)Oc2ncccc2S1(=O)=O` (centres undefined), with less than 1 nM.
Next, `Cc1ccc([C@@H](CC(=O)O)c2ccn3c(C(F)F)nnc3c2C)cc1CN1C[C@H]2CCCCN2c2ncc(C#N)cc2S1(=O)=O`: less than 1 nM.
`Cc1ccc([C@H](CC(=O)O)c2ccn3c(C(F)(F)F)nnc3c2C)cc1CN1C[C@H]2CCCCN2c2nc(C(N)=O)ccc2S1(=O)=O` yielded a Kd of less than 1 nM.
On to `Cc1cnc2c(c1)S(=O)(=O)N(Cc1cc([C@@H](c3ccc4c(nnn4C4CC4)c3C)C(C)(C)C(=O)O)cnc1C)CC1(COC1)O2`, for which the Kd was less than 1 nM.
Then `Cc1ccc([C@@H](CC(=O)O)c2ccn3c(C(F)(F)F)nnc3c2C)nc1CN1C[C@@H]2CCCCN2c2ncc(F)cc2S1(=O)=O`, with less than 1 nM; and `Cc1ccc(C(CC(=O)O)c2cc(OC3CC3)c3c(c2)nnn3C)cc1CN1C[C@H]2CCCCN2c2ncccc2S1(=O)=O` (some centres undefined), with less than 1 nM.
Next, `Cc1cnc2c(c1)S(=O)(=O)N(Cc1cc([C@@H](c3ccn4c(C(F)(F)F)nnc4c3C)C(C)(C)C(=O)O)ccc1C)CC1(CC1)O2`: less than 1 nM; `Cc1cnc2c(c1)S(=O)(=O)N(Cc1cc([C@H](CC(=O)O)c3ccn4c(C(F)(F)F)nnc4c3C)ccc1Cl)CC1CCCCN21` (some centres undefined): less than 1 nM; `Cc1cnc2c(c1)S(=O)(=O)N(Cc1cc([C@H](c3ccn4c(C(F)(F)F)nnc4c3C)C(C)(C)C(=O)O)cnc1C)CC1(CC1)O2`: less than 1 nM.
Then `Cc1ccc([C@H](CC(=O)O)c2ccn3c(C(F)F)nnc3c2C)cc1CN1CC2(CCOCC2)Oc2ncc(F)cc2S1(=O)=O`, with less than 1 nM; and `Cc1cnc2c(c1)S(=O)(=O)N(Cc1cc([C@H](c3ccc4c(nnn4C4CC4)c3C)C(C)(C)C(=O)O)cnc1C)CC1(CCOCC1)O2`, with less than 1 nM.
`Cc1ccc([C@H](CC(=O)O)c2ccn3c(C(F)F)nnc3c2C)cc1CN1CC2(CC2)Oc2ncc(F)cc2S1(=O)=O`: the Kd was less than 1 nM.
`Cc1ccc(C(CC(=O)O)c2ccn3c(C(F)F)nnc3c2C)cc1CN1CC2(CC2)Oc2ncc(F)cc2S1(=O)=O` (centres undefined) gave a Kd of less than 1 nM.
Next, `Cc1cc2c(nc1OCCN1CCCC1)OC1(CC1)CN(Cc1cc([C@@H](c3ccc4c(nnn4C4CC4)c3C)C(C)(C)C(=O)O)cnc1C)S2(=O)=O`: less than 1 nM.
Then `Cc1ccc([C@@H](CC(=O)O)c2ccn3c(C(F)F)nnc3c2C)cc1CN1C[C@@H]2CCCCN2c2ncccc2S1(=O)=O`, with less than 1 nM; and `Cc1cc2cc([C@H](CC(=O)O)c3ccc(C)c(CN4C[C@@H]5CCCCN5c5ncccc5S4(=O)=O)c3)n(C)c2nn1`, with less than 1 nM.
`CCn1nnc2c(C)c(C(CC(=O)O)c3ccc(C)c(CN4CC5(COC5)Oc5ncccc5S4(=O)=O)c3)ccc21` (centres undefined) had a Kd of less than 1 nM.
As to `Cc1ccc(C(CC(=O)O)c2ccn3c(C(F)F)nnc3c2C)cc1CN1CC2(CCOCC2)Oc2ncc(F)cc2S1(=O)=O` (centres undefined), the Kd is less than 1 nM.
Take `Cc1ccc(C(c2ccn3c(C(F)F)nnc3c2C)C(C)(C)C(=O)O)cc1CN1CC2(CCOCC2)Oc2ncccc2S1(=O)=O` (centres undefined): the Kd was less than 1 nM.
For `Cc1ccc([C@H](CC(=O)O)c2ccn3c(C(F)(F)F)nnc3c2C)nc1CN1CC2(CC2)Oc2ncc(F)cc2S1(=O)=O`, the Kd is less than 1 nM.
Next, `Cc1ccc([C@H](c2ccn3c(C(F)(F)F)nnc3c2C)C(C)(C)C(=O)O)cc1CN1CC2(CCOCC2)Oc2nc(OCCN3CCC(F)(F)CC3)ccc2S1(=O)=O`: less than 1 nM; `Cc1ccc([C@@H](c2ccn3c(C4CC4)nnc3c2C)C(C)(C)C(=O)O)cc1CN1CC2(CC2)Oc2nc(OCCN3CCCC3)c(C)cc2S1(=O)=O`: less than 1 nM; `Cc1ccc([C@@H](c2ccn3c(C(F)(F)F)nnc3c2C)C(C)(C)C(=O)O)cc1CN1CC2(CCOCC2)Oc2nc(OCCN3CCCC3)c(C)cc2S1(=O)=O`: less than 1 nM.
Molecule `Cc1cnc2c(c1)S(=O)(=O)N(Cc1nc(C(CC(=O)O)c3ccn4c(C(F)(F)F)nnc4c3C)ccc1C)C[C@H]1CCCCN21` (some centres undefined) yielded a Kd of less than 1 nM.
Then `Cc1ccc([C@@H](c2ccn3c(C(F)(F)F)nnc3c2C)C(C)(C)C(=O)O)cc1CN1CC2(CCOCC2)Oc2nc(N[C@@H](C)CCO)ccc2S1(=O)=O`, with less than 1 nM.
Take `Cc1ccc([C@H](CC(=O)O)c2ccn3c(C(F)(F)F)nnc3c2)cc1CN1C[C@@H]2CCCN2c2ncccc2S1(=O)=O`: the Kd was less than 1 nM.
`Cc1ccc([C@@H](c2ccn3c(C(F)(F)F)nnc3c2C)C(C)(C)C(=O)O)cc1CN1CC2(CCOCC2)Oc2ncccc2S1(=O)=O` displayed a Kd of less than 1 nM.
Consider `Cc1ccc([C@H](CC(=O)O)c2ccn3c(C(F)(F)F)nnc3c2C)cc1CN1CC2(CC2)Oc2nc(NCCCO)ccc2S1(=O)=O`, for which the Kd is less than 1 nM.
`Cc1ccc([C@H](c2ccn3c(C(F)(F)F)nnc3c2C)C(C)(C)C(=O)O)cc1CN1CC2(CC2)Oc2nc(N[C@@H](C)CN3CCCCC3)c(C)cc2S1(=O)=O` had a Kd of less than 1 nM.
Next, `CCn1nnc2c(C)c([C@H](CC(=O)O)c3ccc(C)c(CN4C[C@@H]5CCCCN5c5ncccc5S4(=O)=O)n3)ccc21`: less than 1 nM; `Cc1ccc([C@@H](c2ccn3c(C(F)F)nnc3c2C)C(C)(C)C(=O)O)cc1CN1CC2(CC2)Oc2nc(OCCN3CCCCC3)c(C)cc2S1(=O)=O`: less than 1 nM.
`Cc1ccc([C@@H](CC(=O)O)c2ccn3c(C(F)(F)F)nnc3c2C)nc1CN1CC2(COC2)Oc2ncccc2S1(=O)=O`: the Kd is less than 1 nM.
`CCn1nnc2c(C)c([C@H](c3cc(CN4CC5(CC5)Oc5ncc(C)cc5S4(=O)=O)c(C)cn3)C(C)(C)C(=O)O)ccc21` displayed a Kd of less than 1 nM.
Take `Cc1ccc([C@H](CC(=O)O)c2ccn3c(C(F)(F)F)nnc3c2C)cc1CN1CC2(CC2)Oc2ncc(C#N)cc2S1(=O)=O`: the Kd is less than 1 nM.
As for `Cc1cnc2c(c1)S(=O)(=O)N(Cc1cc([C@@H](CC(=O)O)c3ccn4c(C(F)(F)F)nnc4c3C)ccc1C)CC1(CC1)O2`, the Kd is less than 1 nM.
`Cc1ccc([C@@H](c2ccn3c(C(F)(F)F)nnc3c2C)C(C)(C)C(=O)O)cc1CN1C[C@@H]2CCCCN2c2ncc(C#N)cc2S1(=O)=O` displayed an equilibrium dissociation constant (Kd) of less than 1 nM.
Next, `COc1ccc2c(n1)OC1(CCOCC1)CN(Cc1cc([C@@H](c3ccn4c(C(F)F)nnc4c3C)C(C)(C)C(=O)O)ccc1C)S2(=O)=O`: less than 1 nM; `Cc1ccc([C@H](c2ccn3c(C4CC4)nnc3c2C)C(C)(C)C(=O)O)cc1CN1CC2(COC2)Oc2ncccc2S1(=O)=O`: less than 1 nM; `CCn1nnc2c(C)c([C@H](CC(=O)O)c3ccc(C)c(CN4CC5(COC5)Oc5ncccc5S4(=O)=O)n3)ccc21`: less than 1 nM.
Then `Cc1ccc([C@H](CC(=O)O)c2ccc3c(nnn3C3CC3)c2C)cc1CN1C[C@H]2CCCN2c2ncccc2S1(=O)=O`, with less than 1 nM; and `Cc1cnc2c(c1)S(=O)(=O)N(Cc1cc([C@@H](c3ccn4c(C(F)F)nnc4c3C)C(C)(C)C(=O)O)ncc1C)CC1(CC1)O2`, with less than 1 nM; and `Cc1ccc([C@H](c2ccn3c(C(F)(F)F)nnc3c2C)C(C)(C)C(=O)O)cc1CN1CC2(CCOCC2)Oc2nc(NC(C)CN3CCCCC3)c(C)cc2S1(=O)=O` (some centres undefined), with less than 1 nM.
Next, `Cc1cnc2c(c1)S(=O)(=O)N(Cc1cc(C(c3ccc4c(nnn4C4CC4)c3C)C(C)(C)C(=O)O)cnc1C)CC1(CCOCC1)O2` (centres undefined): less than 1 nM.

Source of the values: ChEMBL document CHEMBL5729293, “Inhibitors of KEAP1-Nrf2 protein-protein interaction” (2022).
